# Experiments:
# Type in all cases: cell-based, human
# HL60 cells [1] = assay: HGF mRNA in HL60 cells (RT-PCR); conditions: 10 nM TPA, at any time periods (4 to 10 hours)
# Description: HL60 cells (human promyelocytic leukemia cell line) cultured in an RPMI 1640 medium containing 10% fetal bovine serum were suspended in an RPMI 1640 medium containing 1% fetal bovine serum so as to have a concentration of 5 × 10^5 cells/ml, and added into each well of a 6-well cell culture plate in a volume of 2 ml each. Thereafter, 10 nM TPA and 7-12SFd-F prepared in item (3) of Reference Example 2 were added each so as to have a final concentration of 100 µg/ml. Also, the same steps were carried out for the group added with only 7-12SFd-F without adding TPA. The cells were further cultured, and a whole RNA was extracted on Hours 4, 6, 8, and 10. In the extraction of the whole RNA, RNeasy Mini Kit (manufactured by QIAGEN) was used. RT-PCR was carried out entirely in the same manner as that in Example 14, except for changing the cycles for PCR to 32 cycles. After the reaction, the reaction mixture was subjected to electrophoresis on a 2% agarose gel and ethidium bromide staining, and the gel was observed under UV irradiation.
# NHDF cells [2] = assay: HGF mRNA in NHDF cells (RT-PCR); conditions: 10 nM TPA, at any time periods (4 to 10 hours)
# Description: NHDF cells (normal human dermal fibroblasts) cultured in a DMEM medium containing 10% fetal bovine serum were suspended in the DMEM medium containing 10% fetal bovine serum so as to have a concentration of 2.5 × 10^5 cells/ml, and added into each well of a 6-well cell culture plate in a volume of 2 ml each. The cells were cultured at 37°C for 24 hours in the presence of 5% CO2. Thereafter, the medium was exchanged for a DMEM medium containing 1% fetal bovine serum, and thereto were added 10 nM tetradecanoylphorbol 13-acetate (TPA: manufactured by Gibco BRL) and 7-12SFd-F prepared in item (3) of Reference Example 2 each so as to have a final concentration of 100 µg/ml. Also, the same steps were carried out for the group added with only 7-12SFd-F without adding TPA. The cells were further cultured, and a whole RNA was extracted on Hours 4, 6, 8 and 10. In the extraction of the whole RNA, RNeasy Mini Kit (QIAGEN) was used. RT-PCR was carried out entirely in the same manner as that in Example 14, except for changing the cycles for PCR to 28 cycles. After the reaction, the reaction mixture was subjected to electrophoresis on a 2% agarose gel and ethidium bromide staining, and the gel was observed under UV irradiation.
# Hs68 cells = assay: HGF in medium and cells of Hs68 cells with or without TPA; conditions: 10 nM TPA alone
# Description: Hs68 cells (human newborn foreskin fibroblasts: manufactured by DAINIPPON PHARMACEUTICAL CO., LTD., ATCC CRL-1635) cultured in a DMEM medium containing 10% fetal bovine serum were suspended in the DMEM medium containing 10% fetal bovine serum so as to have a concentration of 1 × 10^5 cells/ml, and added into each well of a 48-well cell culture plate in a volume of 500 µl each. The cells were cultured for 24 hours. Thereafter, the medium was exchanged for a DMEM medium containing 1% fetal bovine serum, and thereto were added 10 nM TPA and each sample. Also, the same steps were carried out for the group added with only the sample without adding TPA. The medium was collected, and the amount of HGF in the medium was determined by using Quantikine Human Hepatocyte Growth Factor (HGF) ELISA Kit. Further, the cells were washed with PBS, and thereafter dissolved in 500 µl of a cytolytic buffer (50 mM HEPES, pH 7.4; 10 mM EDTA; 0.1% Triton X100; 1 mM PMSF; 1 µg/ml pepstatin A and 1 µg/ml leupeptin). Further, in order to completely dissolve the cells, the mixture was subjected to sonication treatment, and then centrifuged, to give a supernatant (cell extract). The amount of HGF in the cell was determined in the same manner as that of the concentration of HGF in the medium. 7-12SFd-F prepared in item (3) of Reference Example 2 was added so as to have a final concentration of 0.1, 1, 10 or 100 µg/ml. As a negative control, distilled water was added in the same volume as that of the sample. Each experiment was carried out three times, and an average value was taken. In the TPA non-added group, a remarkable production of HGF could not be found. […] In addition, the increase in the amount of HGF when mRNA is increased as described above was very remarkable, as compared to the case where the amount of mRNA is small with no TPA treatment. It was clarified from the above that 7-12SFd-F remarkably promotes the freeing and production of HGF in a case where transcription of mRNA is promoted, so that a large amount of HGF is required.
# HL60 cells [3] = assay: HGF in medium and cells of HL60 cells with or without TPA; conditions: 10 nM TPA alone, 24 h
# Description: HL60 cells (human promyelocytic leukemia cell line) cultured in an RPMI 1640 medium containing 10% fetal bovine serum were suspended in an RPMI 1640 medium containing 1% fetal bovine serum so as to have a concentration of 5 × 10^5 cells/ml, and added into each well of a 48-well cell culture plate in a volume of 500 µl each. There after, 10 nM TPA was added thereto, and each sample was further added, and the cells were then cultured for 24 hours. Also, the same steps were carried out for the group added with only the sample without adding TPA. The medium was collected, and the amount of HGF in the medium was determined by using the Quantikine Human Hepatocyte Growth Factor (HGF) ELISA Kit. Further, the cells were washed with PBS, and thereafter dissolved in 500 µl of a cytolytic buffer (50 mM HEPES, pH 7.4; 10 mM EDTA; 0.1% Triton X100; 1 mM PMSF; 1 µg/ml pepstatin A and 1 µg/ml leupeptin). Further, in order to completely dissolve the cells, the mixture was subjected to sonication treatment, and then centrifuged, to give a supernatant (cell extract). The amount of HGF in the cells was determined in the same manner as that of the concentration of HGF in the medium. 7-12SFd-F prepared in item (3) of Reference Example 2 was added so as to have a final concentration of 1, 10 or 100 µg/ml. As a negative control, distilled water was added in the same volume as that of the sample. Each experiment was carried out three times, and an average value was taken.
# NHDF cells [4] = assay: HGF in medium and cells of NHDF cells with or without TPA; conditions: 10 nM TPA alone
smiles,measurement,setting,value
"CCCCCCCCCCCCCC(=O)O[C@@H]1[C@@H](C)[C@@]2(O)[C@@H](C=C(CO)C[C@]3(O)C(=O)C(C)=C[C@@H]23)[C@@H]2C(C)(C)[C@]12OC(C)=O [TPA, 12-O-tetradecanoylphorbol 13-acetate]",amount of HGF mRNA,HL60 cells [1],remarkably increased
same,amount of HGF mRNA,NHDF cells [2],remarkably increased
same,Amount of HGF in Cells,Hs68 cells,155.65 pg/Well
same,Amount of HGF in Medium,Hs68 cells,65.54 pg/Well
same,Total Amount of HGF,Hs68 cells,221.19 pg/Well
same,Amount of HGF in Cells,HL60 cells [3],83.37 pg/Well
same,Amount of HGF in Medium,HL60 cells [3],261.60 pg/Well
same,Total Amount of HGF,HL60 cells [3],344.97 pg/Well
same,Amount of HGF in Cells,NHDF cells [4],0.24 ng/Well
same,Amount of HGF in Medium,NHDF cells [4],0.39 ng/Well
same,Total Amount of HGF,NHDF cells [4],0.63 ng/Well
